For assay [1], the target named is human inducible NOS (hiNOS) (Homo sapiens, UniProt P35228). Description: IC50 determination, hiNOS. The class given is biochemical. The following applies: for isoform selectivity hiNOS/bNOS (in parentheses): ratio of IC50 hiNOS to IC50 bNOS WT. Here is the method:
(§1) Enzyme activity for bsNOS and bsNOS I218V was measured using the bBidomain constructs, as described previously,^4,14 with some minor alterations. Reactions with bsNOS and bsNOS I218V were run for 8 min, whereas those with hiNOS and heNOS were run for 4 min, as this allowed for adequate signal before complete substrate depletion. hiNOS and heNOS reactions also had calmodulin added at 10× the protein concentration. Inhibitors were tested from 5 μM to 800 μM. IC50 values were calculated as previously described.^9

The target of assay [2] is T1, bNOS WT (bsNOS) (Bacillus subtilis, UniProt O34453). Description: IC50 determination with bBidomain construct, bNOS WT. Further details: YKuN (fusion partner); made in house; host or cells: E. coli BL21 (DE3). The class given is biochemical. Here is the method:
as §1
Target sequence in this assay (O34453 other isoform, or with tags, fused parts or gaps): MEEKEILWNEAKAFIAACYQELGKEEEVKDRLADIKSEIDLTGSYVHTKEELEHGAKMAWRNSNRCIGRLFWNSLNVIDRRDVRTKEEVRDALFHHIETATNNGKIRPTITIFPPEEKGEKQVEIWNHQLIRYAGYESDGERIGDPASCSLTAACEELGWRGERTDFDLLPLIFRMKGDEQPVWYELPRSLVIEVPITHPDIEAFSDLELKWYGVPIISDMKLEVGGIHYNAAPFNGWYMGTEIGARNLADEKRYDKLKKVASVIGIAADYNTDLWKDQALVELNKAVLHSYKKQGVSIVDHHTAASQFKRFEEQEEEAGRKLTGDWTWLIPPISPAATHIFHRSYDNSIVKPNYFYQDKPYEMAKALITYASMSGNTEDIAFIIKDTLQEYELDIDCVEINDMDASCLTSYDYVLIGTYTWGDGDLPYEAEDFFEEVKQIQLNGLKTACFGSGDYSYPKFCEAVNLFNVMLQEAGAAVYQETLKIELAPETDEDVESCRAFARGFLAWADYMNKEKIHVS

Assay [3] addresses T2, bNOS (I218V) (Bacillus subtilis, UniProt O34453, I218V). Description: IC50 determination with bBidomain construct, bNOS I218V. In kind it is biochemical. Further details: YKuN (fusion partner); made in house; host or cells: E. coli BL21 (DE3). As to the method:
as §1
Target sequence in this assay (O34453 other isoform, or with tags, fused parts or gaps I218V): as the sequence (O34453 other isoform, or with tags, fused parts or gaps) above, with I218V counted along it

In assay [4] the target is T1, bNOS WT (bsNOS). Description: Imidazole displacement assay (spectral binding, Ks), bNOS WT. On the set-up: made in house; host or cells: E. coli BL21 (DE3). As to the method:
(§2) The KS value for each ligand was then calculated from KS,app as previously described,^4,14 using the KD of imidazole to bsNOS, bsNOS I218V, hiNOS, and heNOS and normalized to L-Arg.
Target sequence in this assay (O34453 whole entry, the tested form may be a part): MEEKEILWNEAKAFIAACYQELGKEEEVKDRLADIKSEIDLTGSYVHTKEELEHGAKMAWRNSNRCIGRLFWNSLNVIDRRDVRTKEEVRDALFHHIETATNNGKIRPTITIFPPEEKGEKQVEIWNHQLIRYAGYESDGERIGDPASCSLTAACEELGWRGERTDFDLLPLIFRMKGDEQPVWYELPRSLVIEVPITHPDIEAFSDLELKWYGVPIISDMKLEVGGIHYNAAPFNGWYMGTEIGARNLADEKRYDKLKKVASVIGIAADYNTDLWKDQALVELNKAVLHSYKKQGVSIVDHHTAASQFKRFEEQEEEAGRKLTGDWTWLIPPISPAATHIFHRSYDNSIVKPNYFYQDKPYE

The target of assay [5] is T2, bNOS (I218V). Description: Imidazole displacement assay (spectral binding, Ks), bNOS I218V mutant. Further details: made in house; host or cells: E. coli BL21 (DE3). The following applies: for decrease in inhibitor specificity between wild type (WT) and the I218V mutant (increase in KS): KS I218V versus KS WT. Here is the method: as §2
Target sequence in this assay (O34453 whole entry I218V, the tested form may be a part): as the sequence (O34453 whole entry, the tested form may be a part) above, with I218V counted along it
Assay [6] concerns the target human endothelial NOS (heNOS) (Homo sapiens, UniProt P29474). Description: IC50 determination, heNOS. In kind it is biochemical. The following applies: for isoform selectivity heNOS/bNOS (in parentheses): ratio of IC50 heNOS to IC50 bNOS WT. As to the method:
as §1

For assay [7], the system named is MRSA in infected macrophage cells. The assay can be described thus: Macrophage MRSA killing assay. In kind it is cell-based. To be noted: for MRSA killing activity in infected macrophage cells: FIG. 5; for MRSA killing activity compared with QJ13: FIG. 5B. Here is the method: Bone marrow was isolated, red blood cells lysed with ACK buffer (Gibco), and plated on non-tissue culture treated dishes (Fisher) in DMEM media (Hyclone) supplemented with 2 mM L-glutamine (Corning), 100 U/mL pen-strep (Hyclone), 10% fetal bovine serum (OmegaScientific), and 10% cell conditioned media from CMG14-12 cells as a source of CSF. Macrophages were isolated after 6 days of differentiation and stored frozen in liquid nitrogen. One day prior to assay, macrophages were thawed and plated in flat-bottomed 96-well culture plates (VWR) at 50-70,000 cells per well in antibiotic-free DMEM media supplemented with 10% fetal bovine serum and L-glutamine.
Bacteria and inhibitors or vehicle control were added to each well. The plate was spun down for 5 min, 1500 rpm, 25° C. to bring bacteria in contact with the macrophages. The plate was incubated for 1 h at 37° C. with 5% CO2. The plate was spun down for 5 min, 1500 rpm, 25° C. The supernatant was pipetted off and discarded. Cells were lysed with 2% Triton-X 100 for 15 min. MTT in LB (100 μL of 1 mg/mL) was added to each well and plates were incubated for 2 h at 37° C. MTT was solubilized in DMSO, and plates were read at 540 nm. Killing was normalized to untreated bacteria. Empty wells with known bacteria quantities were used as a positive control.

Assay [8] concerns the target T3, human nNOS (hnNOS) (Homo sapiens, UniProt P29475).
T3 construct: made in house; host or cells: Escherichia coli
The assay can be described thus: Hemoglobin NO capture assay, hnNOS. In kind it is biochemical. The following applies: from IC50 by Cheng-Prusoff, 10 μM L-Arg. Here is the method:
(§3) The NOS inhibitory activity of the compounds was measured by the hemoglobin (Hb) NO capture assay following a protocol described previously.^1-2 The production of NO was monitored by a rapid oxidation of oxyhemoglobin (oxyHb) to methemoglobin (metHb) by NO.^1 Purified recombinant NOSs, human nNOS (hnNOS), and human eNOS (heNOS),^3 are used in all activity assays. They were expressed in Escherichia coli and purified as previously reported. In brief, the assay was performed in 100 mM HEPES (4-(2-hydroxyethyl)-1-piperazine-ethanesulfonic acid) buffer with 10% glycerol (pH 7.4-7.5) at 37° C. in the presence of 10 μM L-Arg, 10 μM H4B, 100 μM NADPH, 0.83 mM CaCl2), 320 units/mL calmodulin, and 3 μM human oxyhemoglobin. A concentration of L-Arg of 10 μM was used as it is sufficient not to cause NOS uncoupling and is close to the Km values of all three NOS isoforms where competitive inhibitors can be detected effectively. The assay was performed in 96-well plates using a Biotek Gen5 microplate reader. The NOS enzymes and hemoglobin were dispensed automatically by the plate reader. NO production was kinetically monitored at 401 nm for 6 min. The inhibition constants (Ki) for all NOSs were calculated from the IC50 values of the dose-response curves using the Cheng-Prusoff equation,^4
(§4) [formula] where Km is the Michaelis constant. […] The calculated standard deviations from dose-response curves of the assays were less than 10% with all NOSs.

Assay [9] deals with T4, human eNOS (heNOS) (Homo sapiens, UniProt P29474).
T4 construct: made in house; host or cells: Escherichia coli
The assay can be described thus: Hemoglobin NO capture assay, heNOS. The class given is biochemical. To be noted: for pKi: from IC50 by Cheng-Prusoff, 10 μM L-Arg; for eNOS/nNOS selectivity: ratio of Ki heNOS to Ki hnNOS. As to the method: as §3, §4

Assay [10] deals with hiNOS (Homo sapiens, UniProt P35228). The assay can be described thus: Griess assay IC50, hiNOS. The class given is biochemical. To be noted: IC50 value from Griess assay.

pIC50, pKd, pKi: −log10 of the molar value. Entries after “also recorded” stand apart in the source; their conditions may differ.

Consider 10 molecules from patent US12213973B2, “Bacterial nitric oxide synthase inhibitors” (Northwestern University, priority 2021, dated 2025).

What is called pIC50 is −log10 of the IC50, conventionally taken in molar units. High values mean a low IC50, low ones a high IC50. As usually defined, the pKd is the Kd on a negative log10 scale, so that one unit is a factor of ten. High values mean a low Kd, low ones a high Kd. By pKi is commonly meant the Ki on a negative log10 scale, so that one unit is a factor of ten. Lower therefore signals a large Ki.

As for `Nc1cccc(CCCCNCc2cccc(OCc3ccc4ccc(N)nc4c3)c2)n1` [Compound 8, 7-((3-(((4-(6-aminopyridin-2-yl)butyl)amino)methyl)phenoxy)methyl)quinolin-2-amine], the pIC50 in [1] was 4.62; in [2], 5.21; in assay [3] it was 5.04; in assay [6], 3.90. Also, the “isoform selectivity hiNOS/bNOS (in parentheses)” value (“isoform selectivity hiNOS/bNOS” below) in assay [1] was found to be 4. The pKd in [4] and in [5] was 5.20 throughout. The “isoform selectivity heNOS/bNOS (in parentheses)” value (from here on “isoform selectivity heNOS/bNOS”) in [6] was 21.
Regarding `Nc1cccc(CNCCOc2cccc(OCc3ccc4ccc(N)nc4c3)c2)n1` [Compound 9, 7-((3-(2-(((6-aminopyridin-2-yl)methyl)amino)ethoxy)phenoxy)methyl)quinolin-2-amine], the pIC50 in assay [1] is 3.46; in assay [2] it was 4.58; in assay [3], 3.64; in [6], 3.31. Also, the “isoform selectivity hiNOS/bNOS” value in assay [1] turned out to be 13. In addition, the results for the pKd in assay [4] and in assay [5] were 5.65 and 4.61, respectively. The “decrease in inhibitor specificity between wild type (WT) and the I218V mutant (increase in KS)” value in [5] is reported as 11 fold. Besides, the “isoform selectivity heNOS/bNOS” value in [6] was found to be 19. In addition, the “MRSA killing activity in infected macrophage cells” value in assay [7] is “exhibited killing activity”. The “MRSA killing activity compared with QJ13” value in [7] is recorded as “superior MRSA killing activity”. Moreover, the MRSA killing result in [7] (at ~50 μM concentration) is reported as “about 50%”.
Turning to `Nc1ccc2ccc(COc3cccc(CNCCc4ccccn4)c3)cc2n1` [Compound 6, 7-((3-(((2-(pyridin-2-yl)ethyl)amino)methyl)phenoxy)methyl)quinolin-2-amine], the figures for the negative logarithm of the IC50 (pIC50) in [1], in assay [2] and in assay [3] were 3.40, 4.67 and 4.20, respectively. Moreover, in assay [1], the “isoform selectivity hiNOS/bNOS” value turned out to be 18. Besides, the values for the negative-log Kd (pKd) in [4] and in assay [5] were 4.65 and 4.50, respectively.
As to `Nc1ccc2ccc(COc3cccc(CNCc4ccccn4)c3)cc2n1` [Compound 4, 7-((3-(((pyridin-2-ylmethyl)amino)methyl)phenoxy)methyl)quinolin-2-amine], the pIC50 is 3.84 in assay [1], 4.40 in assay [2], 4.07 in [3] and 3.32 in assay [6]. In assay [1], the “isoform selectivity hiNOS/bNOS” value was found to be 4. Moreover, the figures for the pKd in assay [4] and in assay [5] were 4.49 and 4.23, respectively. In assay [6], the “isoform selectivity heNOS/bNOS” value is given as 12.
As for `Nc1cccc(CNCc2cccc(OCc3ccc4ccc(N)nc4c3)c2)n1` [Compound 5, 7-((3-((((6-aminopyridin-2-yl)methyl)amino)methyl)phenoxy)methyl)quinolin-2-amine], the pIC50 is 3.50 in [1], 4.55 in assay [2], 3.94 in assay [3] and 3.51 in assay [6]. In addition, the “isoform selectivity hiNOS/bNOS” value in assay [1] amounted to 11. The pKd in [4] is 5.64; in assay [5], 4.40. Besides, the “decrease in inhibitor specificity between wild type (WT) and the I218V mutant (increase in KS)” value in assay [5] was determined as 17 fold. For the same molecule, in assay [6], the “isoform selectivity heNOS/bNOS” value amounted to 11. Moreover, in assay [7], the “MRSA killing activity in infected macrophage cells” value is “exhibited killing activity; also recorded: showed efficacy only at higher concentrations”. Further, in [7], the “MRSA killing activity compared with QJ13” value is on record as “superior killing activity”.
For the molecule `COC(=O)[C@@H](N)CCCNC(=N)N[N+](=O)[O-]` [L-NAME, reference compound], the “MRSA killing activity in infected macrophage cells” value in [7] is listed as “no effect”.
`Nc1cccc(CNCCOc2cccc(OCc3cccc(N)n3)c2)n1` [PW-III-25] showed a pKi in assay [8] of 5.48. In [9], the pKi was 3.47 and the eNOS/nNOS selectivity was 102.
As to `Nc1ccc2ccc(COc3cccc(CNCc4ccccn4)c3)cc2n1` [PW-I-101], the pIC50 in assay [10] was 3.84. The molecule further had a pKi in assay [8] of 7.66. In assay [9], the pKi was 4.70 and the eNOS/nNOS selectivity was 900.
In turn, `Nc1cccc(CCCCNCc2cccc(OCc3ccc4ccc(N)nc4c3)c2)n1` [PW-I-103] showed a pIC50 in [10] of 4.62. This molecule also gave a pKi in [8] of 7.42. In addition, in assay [9], the pKi was 5.71 and the eNOS/nNOS selectivity stood at 51.
In the case of `Nc1cccc(CCc2cccc(OCc3ccc4ccc(N)nc4c3)c2)n1` [Compound 3, 7-((3-(2-(6-aminopyridin-2-yl)ethyl)phenoxy)methyl)quinolin-2-amine], the pIC50 is 3.36 in [1], 4.64 in assay [2], 4.51 in [3] and under 3.30 in assay [6]. The “isoform selectivity hiNOS/bNOS” value in assay [1] was 19. Besides, the pKd in assay [4] was 4.52; in [5] it was 4.63.
